Laboratory results from ChEMBL document CHEMBL1134082, “Effect of zinc ion on the inhibition of carboxypeptidase A by imidazole-bearing substrate analogues” (Bioorg Med Chem Lett, 2001).

Legend:
[1] = molecular target: T1, Carboxypeptidase A1 (Bos taurus) (UniProt P00730); test: Cooperative effect of the inhibitory zinc ion in the inhibition of CPA by the compound
T1 sequence (whole entry): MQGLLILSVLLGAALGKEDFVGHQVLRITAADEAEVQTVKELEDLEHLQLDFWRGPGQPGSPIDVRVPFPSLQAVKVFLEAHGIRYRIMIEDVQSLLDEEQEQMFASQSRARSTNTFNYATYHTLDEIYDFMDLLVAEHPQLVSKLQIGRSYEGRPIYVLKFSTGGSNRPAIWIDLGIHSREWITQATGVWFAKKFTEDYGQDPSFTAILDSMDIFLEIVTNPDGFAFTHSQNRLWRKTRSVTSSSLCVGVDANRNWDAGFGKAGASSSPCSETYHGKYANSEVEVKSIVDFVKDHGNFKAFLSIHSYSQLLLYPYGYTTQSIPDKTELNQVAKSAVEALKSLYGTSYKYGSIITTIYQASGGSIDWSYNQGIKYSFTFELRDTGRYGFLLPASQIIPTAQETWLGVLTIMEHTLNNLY

[2] = molecular target: T1, Carboxypeptidase A1 (Bos taurus); test: Apparent inhibitory constant of carboxypeptidase A (CPA) in presence of Zinc ion
[3] = molecular target: T2, Carboxypeptidase A1 (Bos taurus, UniProt P00730); test: Inhibitory constant of carboxypeptidase A (CPA) in absence of Zinc ion.
T2 sequence (P00730 whole entry): T1 sequence (whole entry)

[4] = Extent of enhancement of inhibitory potency of compound against carboxypeptidase A caused by zinc ion.

SMILES | Cooperative effect [1] | K'i [2] [µM] | Ki [3] [µM] | Ki/K'i [4]
O=C(O)C(Cc1ccccc1)Cc1c[nH]cn1 (stereo unspecified) | 0.0047 | 1.01 | 214 | 212
O=C(O)C(CCCc1cnc[nH]1)Cc1ccccc1 (stereo unspecified) |  |  | 750 | 
O=C(O)C(Cc1ccccc1)c1c[nH]cn1 (stereo unspecified) | 1.88 | 0.49 |  | 0.53
O=C(O)C(CCc1c[nH]cn1)Cc1ccccc1 (stereo unspecified) | 0.0056 | 0.29 | 15 | 51.7
O=C(O)C(Cc1ccccc1)c1cnc[nH]1 (stereo unspecified) |  |  | 0.26 | 
O=C(O)C(CCCc1c[nH]cn1)Cc1ccccc1 (stereo unspecified) | 0.024 | 18 |  | 41.7
